The record followed here is article PMC7156458, “Synthetic biology based construction of biological activity-related library of fungal decalin-containing diterpenoid pyrones” (Nature Communications, 2020).

A word on the GI50: it is the concentration that inhibits growth by half. The low end stands for more potent growth inhibition, the high end for less potent growth inhibition. One may read the IC50 as the concentration that inhibits the measured activity by half.

In data set [1] the test system is IMD pathway. Nature of the data set: IMD pathway inhibition, Attacin promoter luciferase assay in l(2)mbn cells. Format: cell-based, Drosophila. The settings on record: for IC50: IMD pathway; for activity at 0.2 µM / activity at 0.4 µM / activity at 0.8 µM / activity at 1 µM / Promoter Activity (%): heat-killed E. coli.
For data set [2], the system named is OVCAR-4. The experiment in a line: cells. Further details: species or system JFCR39 human cancer cell lines; JFCR39 panel growth inhibition, sulforhodamine B total protein after 48 h. Conditions: Homo sapiens, OVCAR-4, 48 h. The essentials:
(§1)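 Steps: culture JFCR39 cells in RPMI-1640/5% FBS at 37°C, 5% CO2; add compound for 48 h; stain total protein with sulforhodamine B; derive GI50 from duplicate wells. Panel fingerprints were compared against a reference database by COMPARE.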

Data set [3] concerns LOX-IMVI. The experiment in a line: cells. Further details: species or system JFCR39 human cancer cell lines; JFCR39 panel growth inhibition, sulforhodamine B total protein after 48 h. The settings on record: 48 h; for GI50: Homo sapiens, LOX IMVI. The essentials: as §1
Data set [4] has as its system A549. Nature of the data set: cells. Details: species or system JFCR39 human cancer cell lines; JFCR39 panel growth inhibition, sulforhodamine B total protein after 48 h. Conditions: Homo sapiens, A549, 48 h. The essentials:
as §1

The test system of data set [5] is PC-3. The experiment in a line: cells. Details: species or system JFCR39 human cancer cell lines; JFCR39 panel growth inhibition, sulforhodamine B total protein after 48 h. The settings on record: Homo sapiens, PC-3, 48 h. The essentials:
as §1

The test system of data set [6] is RXF-631L. The experiment in a line: cells. Details: species or system JFCR39 human cancer cell lines; JFCR39 panel growth inhibition, sulforhodamine B total protein after 48 h. Conditions: RXF-631L, 48 h. The essentials:
as §1

Data set [7] concerns HBC-4. The experiment in a line: cells. Further details: species or system JFCR39 human cancer cell lines; JFCR39 panel growth inhibition, sulforhodamine B total protein after 48 h. Conditions: HBC4, 48 h. The essentials:
as §1

Data set [8] deals with MDA-MB-231. The experiment in a line: cells. Further details: species or system JFCR39 human cancer cell lines; JFCR39 panel growth inhibition, sulforhodamine B total protein after 48 h. The settings on record: Homo sapiens, MDA-MB-231, 48 h. The essentials:
as §1

Data set [9] deals with ALDH-positive cells in MCF-7 cells. Nature of the data set: ALDH-positive cell population (ALDEFLUOR, flow cytometry). Format: cell-based, human. The settings on record: for ALDH (+) Cell number (10^4 cells) ave: 0 µM 1.61; for ALDH (-) Cell number (10^4 cells) ave: 0 µM 133.39; for ALDH (+) Cell number ave (fold) / ALDH (-) Cell number ave (fold): 0 µM = 1. The method, then:
We also evaluated antiproliferative activity against cancer stem cells (CSCs), which are a small sub-population in tumour bulk identified in most cancer cells and clinical samples[52]. CSCs have been a major problem in cancer therapy because they are responsible for recurrence, metastasis and drug resistance to chemotherapeutic agents that affect proliferative cells[53]–[56]. Anti-CSC activity was evaluated by the inhibition of sphere-forming ability, a well-studied method to enrich the CSC-like population, and selective cytotoxicity against one of the most reliable CSC markers, aldehyde dehydrogenase (ALDH)-positive cells. […] Low-toxicity 16 was also added as a negative control. […] We next evaluated the three DDPs that inhibited mammosphere formations against ALDH-positive cells, a functional marker for breast CSCs. MCF-7 cells were treated with 1 μM of 11, 12 or 22, and the ALDH-positive cell population was analysed by using a fluorescence activated cell sorter (Supplementary Fig. 46b). […] Thus, for the first time, we successfully found DDPs with potent antiproliferative effects on the CSC-like population in MCF-7 cells, which may lead to new anti-CSC drugs.
Fig. 5 DDPs show anti-CSC activity in breast cancer cell line MCF-7. a Effect of DDPs on mammosphere formation. After the cells were cultured in the presence of 5 μM DDPs for 7 days, the number of mammospheres was microscopically counted and the percentage of mammosphere-forming cells was determined as mammosphere-forming efficiency (MFE; %). Data represent mean ± s.d. from three independent replicate experiments. P-values were calculated by a two-sided unpaired Student’s t-test, compared with control. b Micrographs show representative images of mammosphere formation from three independent replicate experiments using compound 11, 12, 16, 22. The scale bar, […]. c Effect of DDPs (1 μM, 3 days) on ALDH-positive cells in MCF-7 cells. Data represent mean ± s.d. from three independent replicate experiments. P-values were calculated by a two-sided unpaired Student’s t-test, compared with control. d Dose-dependent effect of compound 12 on ALDH-positive cells in MCF-7 cells. Data represent mean ± s.d. from three independent replicate experiments. P-values were calculated by a two-sided unpaired Student’s t-test. Source data underlying Fig. 5a, c, d are provided in a Source Data file.
!" ' ' '! !" ' ' '! !" ' ' '!!" ' ' '!!" ' ' '!!" ' ' '!!" ' ' '!!" ' ' '! !" ' ' '! !" ' ' '! !" ' ' '! !"#$ ( % ) * '! '' '# '+ '$ '( '% […]
Main population Single cells Single cells
(negative control) Without DEAB […]
P-values are calculated using a two-sided unpaired Student’s t-test; * p < 0.05, ** p < 0.01, compared with control. b, Gating strategy of flow cytometry analysis for detecting ALDH-positive cells. All samples were analyzed by sequential gating including main population (G1), single cells (G2, G3). Negative control with DEAB was used to establish G4 (ALDH-negative cells) and G5 (ALDH-positive cells). […]
Policy information about cell lines […]
were distributed from National Cancer Institute (Frederick, MD). HT-29, MCF-7, DU-145 and PC-3 were purchased from […]
(In general: Flow cytometry measures light scatter and fluorescence of single cells or particles in a stream.)

[10] abbreviates: MCF-7, 0.1 µM, single replicates.
The mark [11] stands for this setting: MCF-7, 0.3 µM, single replicates.

Where “and” joins values, the source holds several entries; their conditions need not be identical. Equal entries are not always repeated. Where two headings read alike, the source gives them in different places.

As to `C=C1CCC2C(C)(CCC=C(C)C)C(O)CCC2(C)C1Cc1c(OC)oc(CO)c(C(=O)OC)c1=O` (stereo not drawn) [Compound 13], the “inhibitory effect on the IMD pathway” value in data set [1] was “moderate inhibitory effect”. For the same compound, the GI50 was 15.5 µM in [2]; 13.7 µM in data set [3]; 19.8 µM in data set [4]; 14.8 µM in data set [5]; 16.8 µM in [6]; 21.8 µM in data set [7]. This compound gave a GI50 in data set [8] of 19.6 µM.
On to `C=C1CC[C@@H]2[C@](C)(CC[C@H]3O[C@H](C=C(C)C)C[C@@]23C)[C@@H]1Cc1c(OC)oc(CO)c(C(=O)OC)c1=O` [Compound 21], for which the “Inhibitory effect (%)” value was 89.37% and 87.09% in [1] (0.4 µM, single wells); 98.99% and 96.72% in data set [1] (0.8 µM, single wells); 98.29% and 97.94% in [1] (1 µM, single wells). Besides, in data set [1] (Drosophila melanogaster, 0.4 µM, single wells, read-out: Inhibitory effect (%)), the inhibition at 0.4 µM came out at 85.2%. In addition, the inhibition at 0.8 µM in data set [1] (Drosophila melanogaster, 0.8 µM, single wells, read-out: Inhibitory effect (%)) turned out to be 96.5%. Further, in data set [1] (Drosophila melanogaster, 1 µM, single wells, read-out: Inhibitory effect (%)), the inhibition at 1 µM came out at 100%. Also, the IC50 worked out at 0.27 ± 0.01 µM in [1] (Drosophila melanogaster, read-out: IC50); 0.273 µM in [1] (Drosophila melanogaster, read-out: IC50 Average); 0.26 µM in [1] (Drosophila melanogaster, single determinations, read-out: IC50 (IC50 1, 2, 3)); 0.29 µM in data set [1] (single determinations, read-out: IC50 (IC50 1, 2, 3)). For the same compound, the activity at 0.2 µM is 81.5% in data set [1] (Drosophila melanogaster, 0.2 µM, read-out: Promoter Activity (%) Average); 81.5% in data set [1] (Drosophila melanogaster, 0.2 µM, read-out: Promoter Activity (%) Final); 73.6% in data set [1] (Drosophila melanogaster, 0.2 µM, single wells, read-out: Promoter Activity (%)). Besides, the activity at 0.4 µM in [1] (Drosophila melanogaster, 0.4 µM, read-out: Promoter Activity (%) Average) was 12.8%; in [1] (Drosophila melanogaster, 0.4 µM, read-out: Promoter Activity (%) Final), 12.8%; in [1] (Drosophila melanogaster, 0.4 µM, single wells, read-out: Promoter Activity (%)), 14.8%. The activity at 0.8 µM was 2.58% in data set [1] (Drosophila melanogaster, 0.8 µM, read-out: Promoter Activity (%) Average) and 2.58% in [1] (Drosophila melanogaster, 0.8 µM, read-out: Promoter Activity (%) Final). The activity at 1 µM was 1.26% in data set [1] (Drosophila melanogaster, 1 µM, read-out: Promoter Activity (%) Average) and 1.26% in [1] (Drosophila melanogaster, 1 µM, read-out: Promoter Activity (%) Final). In addition, the “Promoter Activity (%)” value is 82.38% and 88.33% in data set [1] (0.2 µM, single wells); 10.63% and 12.91% in [1] (0.4 µM, single wells); 3.46% and 1.01% and 3.28% in [1] (0.8 µM, single wells); 0.00% and 1.71% and 2.06% in [1] (1 µM, single wells). The 50% growth inhibitory concentration (GI50) is 15.1 µM in data set [2]; 15.1 µM in [3]; 18.5 µM in [4]; 14.7 µM in data set [5]; 17.3 µM in data set [6]; 16.8 µM in data set [7]. Further, growth in data set [8] was halved (GI50) at 17.8 µM.
On to `C=C1CCC2C(C)(CCC=C(C)C)C(O)CCC2(C)C1Cc1c(OC)oc(CO)c(C)c1=O` (stereo not drawn) [Compound 12], for which the “ALDH (+) Cell number (10^4 cells) ave” value in data set [9] (MCF-7, 0.1 µM) was 0.68 10^4 cells; in data set [9] (MCF-7, 0.3 µM), 0.09 10^4 cells; in [9] (MCF-7, 1 µM) it was 0.09 10^4 cells. The “ALDH (-) Cell number (10^4 cells) ave” value was 96.66 10^4 cells in data set [9] (MCF-7, 0.1 µM); 33.24 10^4 cells in data set [9] (MCF-7, 0.3 µM); 23.57 10^4 cells in data set [9] (MCF-7, 1 µM). The “ALDH (+) Cell number ave (fold)” value in data set [9] (MCF-7, 0.1 µM) is reported as 0.42 fold; in [9] (MCF-7, 0.3 µM), 0.0565 fold; in data set [9] (MCF-7, 1 µM) it was 0.06 fold. Further, the “ALDH (-) Cell number ave (fold)” value in [9] (MCF-7, 0.1 µM) was 0.72 fold; in data set [9] (MCF-7, 0.3 µM), 0.25 fold; in data set [9] (MCF-7, 1 µM), 0.18 fold. Also, the “ALDH (+) Cell number (10^4 cells)” value is 0.81 10^4 cells and 0.72 10^4 cells and 0.50 10^4 cells in data set [9] (setting [10]); 0.054 10^4 cells and 0.12 10^4 cells and 0.10 10^4 cells in data set [9] (setting [11]); 0.14 10^4 cells and 0.08 10^4 cells and 0.05 10^4 cells in data set [9] (MCF-7, 1 µM, single replicates). For the same compound, the “ALDH (-) Cell number (10^4 cells)” value is 89.19 10^4 cells and 102.28 10^4 cells and 98.51 10^4 cells in data set [9] (setting [10]); 26.95 10^4 cells and 38.88 10^4 cells and 33.90 10^4 cells in [9] (setting [11]); 23.86 10^4 cells and 20.92 10^4 cells and 25.95 10^4 cells in data set [9] (MCF-7, 1 µM, single replicates). Further, the “population of ALDH-positive cells” value in data set [9] (MCF-7, 1 μM) is given as “reduced the population of ALDH-positive cells”. Moreover, the “ALDH-positive cells ave (fold)” value in [9] (MCF-7, 1 μM, 3 days, control = 1) is 0.29 fold. Besides, the ALDH-positive cells ave in data set [9] (MCF-7, 1 μM, 3 days, mean of 3, control 1.4) is given as 0.40%. Besides, the “ALDH-positive cells (%)” value in data set [9] (MCF-7, 1 μM, 3 days, single replicates) is 0.4% and 0.6% and 0.2%. For the same compound, in [9] (MCF-7, lower concentrations), the “cytotoxicity against ALDH-positive cells” value was “selective and potent cytotoxicity against ALDH-positive cells”. Also, the GI50 in data set [2] is 9.93 µM; in [4], 6.24 µM; in data set [5] it was 4.92 µM; in data set [6], 16.1 µM; in data set [7], 13.8 µM; in data set [8], 13.5 µM. Moreover, the “Log GI50” value in [3] (inhibitor, Log GI50, 48 h) is reported as -6.218 M.
